According to patent US20210244790A1 (priority 2018, published 2021):
≈ marks a conversion by molar mass, not a printed value. Where two headings read alike, the source gives them in different places. Numbered stars: 1 amine (or outer) side, 2 acyl side, 3 side chain; on linkers, the order of the positions; unused ones are H or OH. Bridge positions count the residues as written; N and C are the ends. Square brackets hold non-standard residues; d marks the D form. Peptide text beside a SMILES is read from it. ξ: configuration not given here. ξAsn(3ξ-OH) = NC(=O)C(O)C(N)C(=O)O; X1 = CC(C)CCCC(CC(=O)[*:1])O[*:2]; NMeF = CN[CH](Cc1ccccc1)C(=O)O; NMeV = CN[CH](C(=O)O)C(C)C; Orn = NCCC[CH](N)C(=O)O

Assays:
[1] = test system: MRSA; settings: CAMHB with 5% FBS
[2] = test system: MRSA Used in Animal Model; test: microbe, parasite or virus in culture; settings: Staphylococcus aureus
[3] = test system: MRSA; test: microbe, parasite or virus in culture; settings: Staphylococcus aureus, read-out: MIC in the presence of 5% FBS, Anti-MRSA activity of 3rd generation
[4] = test system: methicillin-resistant Staphylococcus aureus (MRSA) on the skin; test: Efficacy evaluation test by single dose topical application in murine MRSA skin infection model; format: in vivo, mice; settings: preliminary test
[5] = test system: clinically isolated MRSA strain; test: microbe, parasite or virus in culture; settings: Staphylococcus aureus, read-out: anti-MRSA activity (MIC) of boric acid alone
[6] = test system: Propionibacterium acnes; test: microbe, parasite or virus in culture; settings: Cutibacterium acnes, read-out: antibacterial activity (MIC) of boric acid alone
[7] = test system: MRSA; test: Additional cross MIC test using 5% FBS-added CAMHB, with FIC index; settings: concentration of each component in the combination
[8] = test system: Bacillus anthracis
[9] = test system: Propionibacterium acnes; test: Number of cells after 48 hour anaerobic incubation in 5% FBS-supplemented GAM medium; format: cell-based; settings: lotilibcin 0.1 μg/mL alone, initial 2.8 × 10^6
[10] = test system: MRSA
[11] = read-out: Minimum Inhibitory Concentration Against MRSA Used in Animal Model (MIC), CAMHB, no 5% FBS
[12] = read-out: Minimum Inhibitory Concentration Against MRSA Used in Animal Model (MIC), CAMHB, with 5% FBS

**Q.** With `OB(O)O` [Boric acid] as the molecule, how does the “minimum concentration of boric acid necessary for enhancing the anti-MRSA activity of lotilibcin” value [1] read?
**A.** Its value is 100 µg/mL.

**Q.** And the MIC [2, 11]?
**A.** Its MIC is 2500 mg/L (≈ 40.4 mM).

**Q.** And the MIC [2, 12]?
**A.** The MIC was 2500 mg/L (≈ 40.4 mM).

**Q.** And the MIC ([2]; read-out: concentration exhibiting antibacterial activity (MIC), used solely, not influenced by presence or absence of serum component (FBS))?
**A.** Its MIC is 2500 mg/L (≈ 40.4 mM).

**Q.** What about the MIC [3] of the same molecule?
**A.** Its MIC is 5000 mg/L.

**Q.** What about the “change in the number of cells (CFUs in skin tissue)” value ([4]; 1% boric acid alone, single topical dose) of the same molecule?
**A.** Its value is “on the same level as or worse than the result of the negative control”.

**Q.** And the “antibacterial efficacy in animal infection models” value ([4]; boric acid alone 0.1% to 1%)?
**A.** The value was “no antibacterial efficacy”.

**Q.** And the MIC [5]?
**A.** The MIC was 2500 mg/L (≈ 40.4 mM).

**Q.** What about the MIC [6] of the same molecule?
**A.** The MIC was 1250 mg/L (≈ 20.2 mM).

**Q.** What about the “point of synergy (concentration) in table 7” value [7] of the same molecule?
**A.** The value was 313 µg/mL.

**Q.** With `CC(C)CCCC1CC(=O)NC(CO)C(=O)NC(C(O)C(N)=O)C(=O)NC(CO)C(=O)NCC(=O)N(C)C(Cc2ccccc2)C(=O)NC(CC(C)C)C(=O)NC(CCCN)C(=O)NC(CCC(=O)O)C(=O)NC(CC(N)=O)C(=O)NC(Cc2c[nH]c3ccccc23)C(=O)NC(CCCN)C(=O)N(C)C(C(C)C)C(=O)O1` (centres unmarked) [Lotilibcin, lotilibcin] (S[ξAsn(3ξ-OH)]SG[NMeF]L[Orn]ENW[Orn][NMeV]; linker N-C via X1; configuration not given here) as the molecule, how does the “Antibacterial activity of lotilibcin (MIC)” value ([8]; No serum) read?
**A.** Its value is 1.0 mg/L.

**Q.** And the “Antibacterial activity of lotilibcin (MIC)” value ([8]; With serum (5% FBS))?
**A.** The value was 0.1 mg/L.

**Q.** And the “antibacterial efficacy (change in number of CFUs in skin tissue)” value ([4]; 0.5% lotilibcin alone, single topical dose)?
**A.** The value was “comparable to that of 2% mupirocin”.

**Q.** What about the “antibacterial efficacy (change in number of CFUs in skin tissue)” value ([4]; lotilibcin alone 0.02%, 0.2%, 0.5%, single topical dose, 24 hours) of the same molecule?
**A.** Its value is “dose-dependent efficacy”.

**Q.** And the “Number of cells After 48 hours” value [9]?
**A.** Its value is 1.3 × 10^6 CFU/mL.

**Q.** And the “point of synergy (concentration) in table 7” value [7]?
**A.** Its value is 0.03 µg/mL.

**Q.** And the “MIC in the presence of 5% FBS, Anti-MRSA activity of 1st generation” value ([10]; 1st generation bacteria)?
**A.** Its value is 0.25 mg/L.

**Q.** And the “MIC in the presence of 5% FBS, Anti-MRSA activity of 3rd generation” value ([10]; 3rd generation bacteria, test substance alone)?
**A.** The value was 32 mg/L.

**Q.** Which results are given for `C/C(=C\C(=O)OCCCCCCCCC(=O)O)C[C@@H]1OC[C@H](C[C@@H]2O[C@H]2[C@@H](C)[C@H](C)O)[C@@H](O)[C@H]1O` [Mupirocin, mupirocin]?
**A.** MIC [2, 11]: 0.125 mg/L (≈ 0.00025 mM); MIC [2, 12]: 0.5 mg/L (≈ 0.000999 mM)
